Reference: the NIST ThermoML archive (doi:10.1021/je050200w)
± gives the expanded uncertainty stated by the source.

Assay: xn = mol fraction of the nth substance listed
Settings: 101 kPa, Liquid

CCCCCCCCCCO [decan-1-ol] + CCCCCCCCO
Settings | mass density, 283.15 K [kg/m3] | mass density, 288.15 K [kg/m3] | mass density, 293.15 K [kg/m3] | mass density, 298.15 K [kg/m3] | viscosity, 283.15 K [mPa·s] | viscosity, 288.15 K [mPa·s] | viscosity, 293.15 K [mPa·s] | viscosity, 298.15 K [mPa·s]
x2 = 0 | 836.6 ± 0.6 | 833.3 ± 0.6 | 829.9 ± 0.6 | 826.5 ± 0.6 | 22.06 ± 0.57 | 17.99 ± 0.47 | 14.39 ± 0.39 | 11.74 ± 0.33
x2 = 0.0995 | 836.1 ± 0.6 | 832.7 ± 0.6 | 829.3 ± 0.6 | 825.9 ± 0.6 | 21.14 ± 0.55 | 17.18 ± 0.45 | 13.84 ± 0.38 | 11.31 ± 0.32
x2 = 0.1998 | 835.7 ± 0.6 | 832.3 ± 0.6 | 828.9 ± 0.6 | 825.5 ± 0.6 | 20.23 ± 0.53 | 16.53 ± 0.44 | 13.31 ± 0.36 | 10.94 ± 0.31
x2 = 0.3007 | 835.3 ± 0.6 | 831.9 ± 0.6 | 828.5 ± 0.6 | 825.1 ± 0.6 | 19.39 ± 0.51 | 15.64 ± 0.42 | 12.67 ± 0.35 | 10.53 ± 0.3
x2 = 0.4001 | 834.9 ± 0.6 | 831.5 ± 0.6 | 828.1 ± 0.6 | 824.7 ± 0.6 | 18.46 ± 0.48 | 15.11 ± 0.4 | 12.26 ± 0.34 | 10.07 ± 0.28
x2 = 0.4996 | 834.5 ± 0.6 | 831.1 ± 0.6 | 827.7 ± 0.6 | – | 17.59 ± 0.46 | 14.23 ± 0.38 | 11.59 ± 0.32 | –
x2 = 0.5988 | 834 ± 0.6 | 830.6 ± 0.6 | 827.2 ± 0.6 | – | 16.69 ± 0.44 | 13.71 ± 0.37 | 11.05 ± 0.31 | –
x2 = 0.6998 | 833.6 ± 0.6 | 830.2 ± 0.6 | 826.9 ± 0.6 | – | 15.82 ± 0.42 | 13.02 ± 0.35 | 10.32 ± 0.29 | –
x2 = 0.8001 | 833.1 ± 0.6 | 829.7 ± 0.6 | 826.3 ± 0.6 | – | 15.11 ± 0.4 | 12.25 ± 0.34 | 9.75 ± 0.28 | –
x2 = 0.9 | 832.8 ± 0.6 | 829.4 ± 0.6 | 825.9 ± 0.6 | – | 14.2 ± 0.38 | 11.75 ± 0.33 | 9.008 ± 0.26 | –
